Reference: patent US20180133343A1, “NANOPARTICLE CONJUGATES AND USES THEREOF” (Massachusetts Institute of Technology, priority 2016, published 2018)

Tested on: CD8+ T cells
Experiment: Drug concentration in CD8+ T cells after in vitro incubation
Type: cell-based
Conditions: free drug at 10-fold higher dose, compared to drug-loaded nanoparticles

With `Cc1cccc(-c2[nH]c(C(C)(C)C)nc2-c2ccc3nccnc3c2)n1` [SB525334] the drug/cell ratio was “lower drug/cell ratio”.
